# Data published in patent US20020111314A1, “Novel stimulation of gene expression and protein synthesis of heat shock protein 72/73 (Hsp 70)” (The Trustees of Columbia University, priority 1995, published 2002).
# Square brackets hold non-standard residues; d marks the D form. Peptide text beside a SMILES is read from it. Nle = CCCC[C@H](N)C(=O)O
# How the values were obtained:
# proteasomes = details: Rock, et al., 1994; cited from earlier work
# Hsp70 = Hsp70 turnover (pulse-chase) in HepG2 cells; assay type: cell-based, human
# Description: FIGS. 4A-4B: Effects of ALLN on Hsp70 turnover and synthesis rates in HepG2 cells. Confluent culture dishes were preincubated for 4 hours with serum-free MEM containing either 1.5% BSA alone (Control) or BSA plus 40 μg/ml of ALLN (ALLN). (A) The preincubated cells were radiolabeled with 3H-leucine (150 μCi/ml) in serum-free, leucine-free medium with/without ALLN for 20 min., washed 3 times with medium free of isotope and then chased in serum-free medium containing BSA with/without ALLN for up to 20 hours. At the indicated time points, cells were harvested and lysed. Samples were immediately stored in a −80° C. freezer. Immunoprecipitation of Hsp70 was performed as described in FIG. 1. […]
# FIGS. 8A-8C: Effects of ALLN on Hsp70 synthesis and turnover rates in HepG2 cells. […] Immunoprecipitates were analyzed on SDS-PAGE and fluorography (A) and also aliquoted for scintillation counting (B). […]
# Since ALLN is a cysteine protease inhibitor, the possibility that protection of Hsp70 from proteolytic degradation accounted for the sharp increase in Hsp70 induced by ALLN was tested (Rock, et al., 1994; Ward, et al., 1995; Hiwasa, et al., 1990; Inoue, et al., 1991; and Sakata, et al., 1993). To determine whether ALLN stabilizes Hsp70, the turnover rate of radiolabeled Hsp70 in the presence or absence of ALLN (40 μg/ml) was measured in a pulse-chase experiment. […]
# [1] = tested on: cysteine proteases, calpain and cathepsin B; details: Rock, et al., 1994; cited from earlier work
smiles,measurement,setting,value
"CCCC[C@@H](C=O)NC(=O)[C@H](CC(C)C)NC(=O)[C@H](CC(C)C)NC(C)=O [ALLN, N-acetyl-leucyl-leucyl-norleucinal] (Ac-Leu-Leu-[Nle]-aldehyde)",inhibition of proteasomes,proteasomes,potent inhibitors
same,increase in the half-life of Hsp70,Hsp70; ALLN 40 μg/ml vs without ALLN,3-4 fold
same,half life of newly synthesized Hsp70 in the presence of ALLN,"Hsp70; ALLN 40 μg/ml, pulse-chase",about 6 hours
same,activities against calpain and cathepsin B,[1],significant activities
